The source of these data is publication PMC10636171 (Cell Death & Disease, 2023).

In data set [1] the test system is phosphorylated c-Met in MHCC97H cells. As to the kind of experiment: Western blot of phosphorylated c-Met. It counts as cell-based, human. Particulars: concentration as low as 1 nM. As to the method:
(§1) Proteins (25–50 ug/lane) were separated on a 4–12% Bis-Tris NuPAGE gel and blotted onto a PVDF membrane (FluoroTrans; VWR). […] Horseradish peroxidase-conjugated secondary antibodies were from Cell Signaling. Proteins were visualized by enhanced chemiluminescence (Millipore) on ChemiDoc camera (Bio-Rad) and protein expression levels were quantified using the lmageJ software. Full anduncropped western blots are presented in Supplemental File.
(Immunoblotting shows a protein as a band on a membrane.)

Data set [2] concerns phosphorylated c-Met in MKN45 cells. Briefly: Western blot of phosphorylated c-Met. The settings on record: MKN45, concentration as low as 1 nM. It counts as cell-based, human. As to the method:
as §1

Data set [3] can be described thus: Hematoxylin and eosin histology of major tissues. It counts as in vivo. Particulars: following various treatments. As to the method: Female and male Kunming mice (36 mice each, 18 ~ 25 g) were purchased and housed at the SPF (Beijing) Biotechnology Co. in pathogen-free condition, maintained at constant room temperature and fed a standard rodent chow and water. The mice were randomly divided into experimental group and control group. […]. The heart, liver, lung and kidney of mice in the 750 mg/kg dose group were taken and fixed for HE staining.

The test system of data set [4] is MHCC97H xenograft tumor. Briefly: MHCC97H xenograft tumor model. It counts as in vivo, BALB/c nude mice. The settings on record: ig, calculated through tumor weight. As to the method: (§2) Male BALB/c nude mice (5-week old, 18–20 g) were purchased from Beijing Vital River Laboratory Animal Technology (Beijing Vital River LaboratoryAnimal Technology Co., Ltd., Beijing,China) and allowed to acclimate for 1 week, maintained at constant room temperature and fed a standard rodent chow and water. 1 × 10^7 cells/mL cancer cells grown in logarithmic phase were harvested and resuspended in FBS-free 1640 medium. Then, 100 μL of the cell suspension was subcutaneously injected into the right flank of each mouse. When the tumour volume was reached about 600–800 mm^3, it was removed, minced into small pieces of equal volume (2 × 2 × 2 mm^3), and transplanted subcutaneously into the nude mice. When the tumour volume was reached about 200–400 mm^3, the xenograft tumour-bearing nude mice were randomly allocated to five groups (vehicle-treated, 1D228-2mgd-treated, 1D228-4mgd-treated […] Tepotinib-treated groups, with 6 or 8 mice (The number of mice were determined according to previous experience on xenograft tumor models) per group. Each group was dosed by intragastric administration (ig) for 7–14 days. Tumour volume and body weights were recorded every day after drug treatment. At the end of the observation period, the animals were euthanized by cervical dislocation and the tumour bulks were peeled off conformed to the Guide for the Care and Use of Laboratory Animals as published by the US National Institutes of Health (NIH Publication No. 85-23, revised 1996) and approved by the Institutional Ethics Review Board of Binzhou Medical University. There was no blinding was done during the animal experiment. No animals were excluded from the analysis.

The test system of data set [5] is MKN45 xenograft tumor. As to the kind of experiment: MKN45 xenograft tumor model. Type of data set: in vivo, BALB/c nude mice. The settings on record: ig. On the procedure: as §2
The subject of data set [6] is ASPC1. As to the kind of experiment: Transwell migration assay. It counts as cell-based, human. On the procedure:
(§3) Migration assay was performed using an 8 μm-pore Boyden chamber (24-well, #353097, Corning, NY, USA). Treated with 1, 5, and 10 nM 1D228 for 48 h. A total of 5 × 10^4 cells were seeded in serum-free medium in the top chamber and allowed to migrate for 48 h toward the bottom chamber containing 10% fetal bovine serum medium. Cells were fixed and permeabilized with cold 70% ethanol and methanol and stained with 0.4% crystal violet. The average number of migrating cells was evaluated from at least four independent microscope fields.

The test system of data set [7] is MHCC97H. As to the kind of experiment: Transwell migration assay. Particulars: transwell, 1, 5 and 10 nM. Type of data set: cell-based, human. On the procedure: as §3
For data set [8], the system named is Cyclin D1. Briefly: Western blot of Cyclin D1. It counts as cell-based. Particulars: 5 nM and 10 nM. On the procedure: as §1

Consider `[2H][C@@](C)(c1cccc(-c2ncc(OCC3CCN(C)CC3)cn2)c1)n1nc(-c2cccc(C#N)c2)ccc1=O` [1D228], for which the “Phosphorylated c-Met level” value in data set [1] and in data set [2] was “significant reduction” throughout. For the same compound, the “Toxicity in H&E-stained heart, liver, lung and kidney” value in data set [3] is “no evidence of toxicity”. For the same compound, the “Tumor growth inhibition (TGI)” value in data set [4] (2 mg/kg) is recorded as 81.2%; in data set [4] (4 mg/kg), 93.4%; in data set [4] (8 mg/kg), 98.2%. In addition, the TGI in data set [5] (2 mg/kg/d) is recorded as 74.4%; in data set [5] (4 mg/kg/d) it was 90.7%; in data set [5] (8 mg/kg/d) it was 94.8%. Besides, the “Cells blocked from migrating” value in data set [6] and in data set [7] was 50–80% each time. Further, the “Cyclin D1 expression” value in data set [8] was “substantially inhibited”.

For orientation: TGI means how far tumour growth fell short of that in controls.
